# In patent publication US10005817B2, “Peptide pharmaceuticals” (EUMEDERIS PHARMACEUTICALS, INC., priority 2012, dated 2018):
# Columns and labels:
# [1] = plasma protease stability, incubation in human plasma at 37 degC, LC-MS; assay type: in vitro ADME; settings: over 8 hrs
# db/db mice = assay: db/db mice, blood glucose after s.c. dosing; assay type: in vivo, mouse; settings: db/db mice, s.c., 250 nmole/kg
# Description: The 60 female db/db B6BKS (D) Leprdb/J (strain 000697) mice for this study were approximately 8 to 9 weeks old at arrival (Jackson Laboratory, Bar Harbor, Me.). […] One group of 8 female mice served as the vehicle control and received the vehicle, 0.2% BSA in saline, pH 7.4. One additional group of 8 female mice received the positive control article, liraglutide, at a dose level of 50 nmoles/kg. The test articles, vehicle, and positive control article were administered on Day 1, at approximately 0, 7, and 24 hours during the study via subcutaneous injection at a dose volume of 6 mL/kg.
# Clinical observations were conducted at receipt, prior to randomization, and daily from Days 1 to 5. Body weights were measured and recorded at receipt, prior to randomization, and daily from Days 1 to 5. Food consumption was measured and recorded daily from Days 1 to 5. Blood samples for glucose analysis were collected pretest (Day −3) and at 0, 1, 2, 4, 8, 10, 24, 48, 72, and 96 hours following the first dose on Day 1. At study termination all animals were euthanized and the carcasses were discarded without further evaluation.
# [2] = in water; cited from earlier work
Molecule,amount of intact compound versus time in human plasma [1],CMC [2] [mM],other results
CCCCCCCCCCCCO[C@@H]1O[C@H](C(=O)NCCCC[C@H](NC(=O)[C@@H](NC(=O)[C@H](Cc2ccccc2)NC(=O)[C@H](CCC(=O)O)NC(=O)[C@@H]2CCCCNC(=O)CC[C@H](NC(=O)[C@H](CC(=O)O)NC(=O)[C@H](CC(C)C)NC(=O)[C@H](Cc3ccc(O)cc3)NC(=O)[C@H](CCCCN)NC(=O)[C@H](CO)NC(=O)[C@H](Cc3ccc(O)cc3)NC(=O)[C@H](CC(=O)O)NC(=O)[C@H](CO)NC(=O)[C@@H](NC(=O)[C@H](Cc3ccccc3)NC(=O)[C@@H](NC(=O)CNC(=O)[C@H](CCC(N)=O)NC(=O)C(C)(C)NC(=O)[C@@H](N)Cc3c[nH]cn3)[C@@H](C)O)[C@@H](C)O)C(=O)N[C@@H](CCC(N)=O)C(=O)N[C@@H](C)C(=O)N[C@@H](C)C(=O)N2)[C@@H](C)CC)C(=O)N[C@@H](Cc2c[nH]c3ccccc23)C(=O)N[C@@H](CC(C)C)C(=O)N[C@@H](CC(C)C)C(=O)N[C@@H](CCC(N)=O)C(=O)N[C@H](C(N)=O)[C@@H](C)O)[C@@H](O)[C@H](O)[C@H]1O [EU-A993],essentially no change,,Mean Blood Glucose (db/db mice; 0 hr): 503 mg/dL; Mean Blood Glucose (db/db mice; 10 hr): 305 mg/dL; Mean Blood Glucose (db/db mice; 24 hr): 324 mg/dL; Mean Blood Glucose (db/db mice; 48 hr): 426 mg/dL
CCCCCCCCCCCCCO[C@@H]1O[C@H](CO)[C@@H](OC2OC(CO)C(O)C(O)C2O)[C@H](O)[C@H]1O (stereo in doubt) [Tridecyl maltoside],,0.03,
CCCCCCCCCCCCO[C@@H]1O[C@H](CO)[C@@H](O[C@H]2O[C@H](CO)[C@@H](O)[C@H](O)[C@H]2O)[C@H](O)[C@H]1O [Dodecyl-β-D-maltoside],,0.17,
CCCCCCCCCCO[C@@H]1O[C@H](CO)[C@@H](O[C@H]2O[C@H](CO)[C@@H](O)[C@H](O)[C@H]2O)[C@H](O)[C@H]1O [Decyl maltoside],,1.8,
Sucrose dodecanoate,,0.3,
"CC[C@H](C)[C@H](NC(=O)[C@H](Cc1ccccc1)NC(=O)[C@H](CCC(=O)O)NC(=O)[C@H](CCCCN)NC(=O)[C@H](C)NC(=O)[C@H](C)NC(=O)[C@H](CCC(N)=O)NC(=O)CNC(=O)[C@H](CCC(=O)O)NC(=O)[C@H](CC(C)C)NC(=O)[C@H](Cc1ccc(O)cc1)NC(=O)[C@H](CO)NC(=O)[C@H](CO)NC(=O)[C@@H](NC(=O)[C@H](CC(=O)O)NC(=O)[C@H](CO)NC(=O)[C@@H](NC(=O)[C@H](Cc1ccccc1)NC(=O)[C@@H](NC(=O)CNC(=O)[C@H](CCC(=O)O)NC(=O)[C@H](C)NC(=O)[C@@H](N)Cc1c[nH]cn1)[C@@H](C)O)[C@@H](C)O)C(C)C)C(=O)N[C@@H](C)C(=O)N[C@@H](Cc1c[nH]c2ccccc12)C(=O)N[C@@H](CC(C)C)C(=O)N[C@H](C(=O)N[C@@H](CCCCN)C(=O)NCC(=O)N[C@@H](CCCNC(=N)N)C(N)=O)C(C)C [GLP-1 (7-36), reference compound]",rapid decrease,,
